Test results taken from ChEMBL document CHEMBL3044633, “Synthesis and Insecticidal Activity of 3, 5-Dimethylbenzoyl Moiety Modified Analogues of N-tert-Butyl-N-(4-ethylbenzoyl)-3, 5-dimethylbenzohydrazide” (2002).

How the values were obtained:
Format in all cases: functional
Settings in all cases: foliar, 120 h
Spodoptera litura [1] = experiment: Insecticidal activity against the Spodoptera litura larvae in compound treated cabbage leaves assessed as mortality at 200 ppm measured after 5 days by leaf dipping method
Spodoptera litura [2] = experiment: Insecticidal activity against the Spodoptera litura larvae in compound treated cabbage leaves assessed as mortality at 12.5 ppm measured after 5 days by leaf dipping method
Spodoptera litura [3] = experiment: Insecticidal activity against the Spodoptera litura larvae in compound treated cabbage leaves assessed as mortality at 50 ppm measured after 5 days by leaf dipping method
Spodoptera litura [4] = experiment: Insecticidal activity against the Spodoptera litura larvae in compound treated cabbage leaves assessed as mortality at 3.1 ppm measured after 5 days by leaf dipping method

Row | SMILES | mortality at 200 ppm (Spodoptera litura [1]) [%] | mortality at 12.5 ppm (Spodoptera litura [2]) [%] | mortality at 50 ppm (Spodoptera litura [3]) [%] | mortality at 3.1 ppm (Spodoptera litura [4]) [%]
1 | CCc1ccc(C(=O)NN(C(=O)c2ccc3ocnc3c2)C(C)(C)C)cc1 | 5 |  |  | 
2 | CCc1ccc(C(=O)NN(C(=O)c2ccc3ncoc3c2)C(C)(C)C)cc1 | 1 |  |  | 
3 | CCc1ccc(C(=O)NN(C(=O)c2cc(C)cc(C(F)F)c2)C(C)(C)C)cc1 | 10 | 8 | 10 | 
4 | CCc1ccc(C(=O)NN(C(=O)c2ccc3c(c2)OCCO3)C(C)(C)C)cc1 | 0 |  |  | 
5 | C=Cc1cc(C)cc(C(=O)N(NC(=O)c2ccc(CC)cc2)C(C)(C)C)c1 | 10 | 1 | 7 | 
6 | CCc1ccc(C(=O)NN(C(=O)c2cc(C)cc(C=O)c2)C(C)(C)C)cc1 | 0 |  |  | 
7 | CCc1ccc(C(=O)NN(C(=O)c2cc(C)cc(CF)c2)C(C)(C)C)cc1 | 10 | 5 | 10 | 
8 | CCc1ccc(C(=O)NN(C(=O)c2cc(C)cc(CCl)c2)C(C)(C)C)cc1 | 7 |  | 1 | 
9 | CCc1ccc(C(=O)NN(C(=O)c2cc(C)cc(CO)c2)C(C)(C)C)cc1 | 0 |  |  | 
10 | CCc1ccc(C(=O)NN(C(=O)c2cc(C)cc(CO[Si](C)(C)C(C)(C)C)c2)C(C)(C)C)cc1 | 0 |  |  | 
11 | CCc1ccc(C(=O)NN(C(=O)c2cc(C)cc(COC)c2)C(C)(C)C)cc1 | 9 |  | 5 | 
12 | CCc1ccc(C(=O)NNC(=O)C2CC(C)CC(C)C2)cc1 (centres undefined) | 1 |  | 0 | 
13 | CCc1ccc(C(=O)NN(C(=O)C2C=C(C)CC(C)=C2)C(C)(C)C)cc1 | 10 | 4 | 10 | 
14 | CCCCOCc1cc(C)cc(C(=O)N(NC(=O)c2ccc(CC)cc2)C(C)(C)C)c1 | 0 |  |  | 
15 | CCc1ccc(C(=O)NN(C(=O)c2cc(C)cc(C)c2)C(C)(C)C)cc1 [TEBUFENOZIDE] | 10 | 10 | 10 | 3
